# Source: US12721809B2, “Formulation for treating ophthalmic conditions” (Guangzhou KangRui Biological Pharmaceutical Technology Co., …, priority 2021, dated 2026)
# “And” between values parts separate entries of the source, which are not always exact repeats. Equal values may be shown once.
# Assays:
# Type in all cases: physicochemical
# [1] = API content/purity by liquid chromatography before and after pulverization; settings: for HPLC peak (percentage of peak area), Impurity 1: Impurity 1 = Intermediate A; for HPLC peak (percentage of peak area), Impurity 2: Impurity 2 = Intermediate B
# Experimental: API content was determined by liquid chromatography, Diamonsil® plus-C18 column (4.6×150 mm, […]), mobile phase: acetonitrile (with 0.2‰ trifluoroacetic acid):water (with 0.2‰ trifluoroacetic acid), acetonitrile gradient 5-95%, time: 17 min, column temperature 20° C., detection wavelength 254 nm. The results are shown as follows and in FIGS. 5A-5B: […]
# [2] = Particle size of KDR2-2 API before and after pulverization (Malvern); settings: for Particle size Dv (10) / Particle size Dv (50) / Particle size Dv (90): dry method (Mastersizer 3000); for D10 (μm) / D50 (μm) / D90 (μm): listed as KDR2-2 API
# Experimental: Particle sizes: KDR2-2 is a poorly soluble drug with large particle sizes. The drug substance should be micronized to meet the quality standards of KDR2-2 Suspension Eye Drop. The result of microscopic observation of KDR2-2 (Batch #CK0120554-02-03P-01-32-01) in 1% Kolliphor® HS 15 is shown in FIG. 1, and the particle sizes of KDR2-2 (Batch #CK0120554-02-03P-01-32-01) in 1% Kolliphor® HS 15 were measured by malvern and is presented in Table 4.
# (§1) The drug particle size for suspension eye drops should be reduced to level <10 μm in an attempt to avoid excessive lacrimation, the micronization process of drug substance was studied. The micronization process parameters of the jet are: injection pressure is 5 bar; crushing pressure is 3 bar. The particle size and distribution of the KDR2-2 API were measured before and after pulverization, to determine whether the API satisfies the formulation requirements after pulverization.
# as §1, with “studied. Certain amount of KDR2-2 API was taken and fed into a jet mill.” for “studied.”, “bar; the media for micronization is air.” for “bar.”, “was” for “were”, “pulverization using the dry method (Mastersizer 3000, Malvern),” for “pulverization,”
# [3] = Solubility of KDR2-2 in different media
# [4] = KDR2-2 API before micronization
# [5] = KDR2-2 API after micronization (jet mill)
# [6] = after pulverization (jet mill, 5 bar/3 bar)
# [7] = before pulverization, in 1% Kolliphor® HS 15, batch CK0120554-02-03P-01-32-01
structure (smiles),measurement,setting,value
"Nc1nccc(Oc2ccc3c(C(=O)Nc4cccc(C(F)(F)F)c4)cccc3n2)n1 [KDR2-2, 2-(2-Aminopyrimidin-4-yloxy)-N-(3-(trifluoromethyl)phenyl)quinoline-5-carboxamide]","HPLC peak (percentage of peak area), KDR2-2",[1]; KDR2-2 API after micronization,Peak area % = 99.839%
same,"HPLC peak (percentage of peak area), Impurity 1",[1]; KDR2-2 API after micronization,Peak area % = 0.085%
same,"HPLC peak (percentage of peak area), Impurity 2",[1]; KDR2-2 API after micronization,Peak area % = 0.075%
same,"HPLC peak (percentage of peak area), KDR2-2",[1]; [4],Peak area % = 99.820%
same,"HPLC peak (percentage of peak area), Impurity 1",[1]; [4],Peak area % = 0.08%
same,"HPLC peak (percentage of peak area), Impurity 2",[1]; [4],Peak area % = 0.101%
same,Particle size Dv (10),[2]; [5],0.304 μm
same,Particle size Dv (50),[2]; [5],1.75 μm
same,Particle size Dv (90),[2]; [5],3.83 μm
same,Particle size Dv (10),[2]; [4],2.33 μm
same,Particle size Dv (50),[2]; [4],10.5 μm
same,Particle size Dv (90),[2]; [4],472 μm
same,D10 (μm),[2]; [6],0.957 μm and 0.949 μm and 0.946 μm
same,D50 (μm),[2]; [6],3.55 μm and 3.46 μm and 3.41 μm
same,D90 (μm),[2]; [6],8.03 μm and 7.59 μm and 7.47 μm
same,D10 (μm),[2]; [7],55.9 μm and 33.0 μm and 45.5 μm
same,D50 (μm),[2]; [7],162 μm and 105 μm and 138 μm
same,D90 (μm),[2]; [7],375 μm and 292 μm and 353 μm
same,solubility,"[3]; acetone, organic solvent or mixture",7700 to 11500 µg/mL
same,solubility,"[3]; acetone/water, aqueous with cosolvent or surfactant or cyclodextrin",7300 to 11000 µg/mL
same,solubility,"[3]; acetonitrile, organic solvent or mixture",1700 to 1900 µg/mL
same,solubility,"[3]; chloroform, organic solvent or mixture",< 1100 µg/mL
same,solubility,"[3]; dimethylsulfoxide, organic solvent or mixture",> 28000 µg/mL
same,solubility,"[3]; ethanol, organic solvent or mixture",2400 to 2700 µg/mL
same,solubility,"[3]; ethyl acetate, organic solvent or mixture",3800 to 4600 µg/mL
same,solubility,"[3]; iso-propyl alcohol, organic solvent or mixture",< 1100 µg/mL
same,solubility,"[3]; methanol, organic solvent or mixture",6300 to 9500 µg/mL
same,solubility,"[3]; methyl isobutyl ketone, organic solvent or mixture",1800 to 2200 µg/mL
same,solubility,"[3]; methyl tert-butyl ether, organic solvent or mixture",< 1200 µg/mL
same,solubility,"[3]; tetrahydrofuran, organic solvent or mixture",> 18000 µg/mL
same,solubility,"[3]; toluene, organic solvent or mixture",< 900 µg/mL
same,solubility,[3]; water,< 1100 µg/mL
